The record followed here is paper PMC6888004 (International Journal of Molecular Sciences, 2019).

Usually IC50 stands for the midpoint of a concentration-inhibition curve. As a reminder, the half-life is the time needed for the level to fall by half in the phase considered. A low value points to fast loss.

Like-named read-outs stand apart in the source and are kept apart here.

Data set [1] is described as follows: Stability in EMEM cell culture medium at 37 °C (HPLC-UV). The class given is in vitro ADME. As to conditions: for stability in cell culture medium: EMEM, 37 °C, up to 72 h. The protocol: Stock solutions of compounds in DMSO were diluted to 10 µM in complemented EMEM (Lonza). Samples were incubated for 2, 6, 24, and 72 h at 37 °C. After the incubation, acetonitrile (VWR, cat. no.: 83639.320) was added to the solutions (1:1 ratio, to achieve 50% acetonitrile content). The samples were vortexed and centrifuged (13,000× g, 10 min). Supernatants were measured by HPLC-UV. HPLC method and chromatograms are available in the Supplementary Information. Stability was calculated using the external standard method. Decay curves were generated and half-life was calculated by GraphPad Prism 5.02 software.

Data set [2] can be described thus: pH-dependent artificial membrane permeability assay (PAMPA). The class given is in vitro ADME. The protocol: An artificial-membrane-based system (BD Gentest™ Pre-Coated PAMPA plate, Corning, cat. no.: 353015) was used to determine the pH-dependent membrane permeability of the compounds. In this method, the protocol provided by the manufacturer was followed with minor modifications. Four different pH values were applied per compound. […] Stock solutions of compounds in DMSO were diluted to 100 µM in each PBS. PBS solutions were loaded into the donor wells, but the acceptor wells were filled with physiological PBS (pH = 7.4). The system was gently shaken (BioSan Thermo-Shaker PST-60HL) for 5 h at 25 °C. […] Calculation formula and the calculated data are available in the Supplementary Information, Section S4. page 11: S4. PAMPA Calculation formula: −ln(1 − CaCe) Pe = 1 1 A ∗ (Vd + Va) ∗ t Ce = (Cd ∗ Vd + Ca∗ Va)/(Vd + Va) R = 1 − Cd ∗ Vd + Ca∗ Va C0 ∗ Vd Pe = permeability (cm/s) R = mass retention (percentage loss of compound due to non-specific binding to the plastic surfaces during the permeation assay) A = membrane area (cm2) c0 = initial donor concentration ca = final acceptor concentration cd = final donor concentration ce = equilibrium concentration t = incubation time (sec) Va = acceptor volume (mL) Vd = donor volume (mL)
In general terms: PAMPA measures passive passage across an artificial lipid membrane.

Another data set deals with c-Met. Briefly: c-Met phosphorylation in EBC-1 cells by western blot. The class given is cell-based. Particulars: 6 h. The method, then:
To analyze the effect of the compounds on c-Met phosphorylation, EBC-1 cells were seeded in six well plates and grown to 90% confluence. […] Cells were incubated with the compounds for 6 h at 37 °C in a CO2 incubator. After the incubation, western blot analysis was performed. To investigate GnRH-R protein level, cells were seeded in six well plates and grown to 90% confluence, then western blot analysis was applied.
Bands were visualized via Enhanced Chemiluminescence detection system (Western Lightning ECL Pro, PerkinElmer, Waltham, MA, USA, cat. no.: NEL122001EA).
On the technique in general: A western blot detects proteins with antibodies after separation by electrophoresis.

The test system of data set [3] is primary human skin fibroblast cells. Briefly: CellTiter-Glo cell viability assay on primary skin fibroblast cells. The class given is cell-based. Particulars: GnRHR-negative cells, 72 h treatment, read-out: IC50, viability inhibition on primary human skin fibroblast cells. The method, then:
Primary human skin fibroblast cells (fibroblast cells) were gifted by the Institute of Genomic Medicine and Rare Disorders, Semmelweis University (Budapest, Hungary). Fibroblast cells were cultured in Dulbecco’s modified Eagle’s medium (DMEM) (Thermo Fisher Scientific, cat. no.: 41965039) supplemented with 10% FBS (Thermo Fisher Scientific), 1% penicillin–streptomycin (Thermo Fisher Scientific, cat. no.: 15070063) and 1% MEM Non-Essential Amino Acids Solution (Thermo Fisher Scientific, cat. no.: 11140035). Cell cultures were grown in vitro at 37 °C, 95% air and 5% CO2 atmosphere.
(§1) Effects of the synthesized compounds on EBC-1 and fibroblast cell viability was measured via CellTiter-Glo® luminescent cell viability assay (Promega, Madison, WI, USA) according to the manufacturer’s instructions. Briefly, cells were plated at 1000 cells/well onto a flat-bottomed, white 96 well plate (BRANDplates, cat. no.: 781965). After 24 h, cells were treated for 72 h with either the desired 4-fold serial diluted compound concentrations or vehicle (0.2% DMSO) control. After the treatment, the luminescence signal was recorded using a microplate reader (BioTek Synergy 2 Multi-Mode Reader, BioTek, Winooski, VT, USA). Dose–response curves (using a non-linear regression model) were generated and IC50 values were determined using Graph Pad Prism 5.02 software (GraphPad Software, San Diego, CA, USA).

Another data set concerns the target T1, recombinant c-Met kinase (Homo sapiens, UniProt P08581).
T1 construct: purchased ProQinase 0171-0000-1
Briefly: In vitro inhibition of recombinant c-Met kinase (ADP-Glo). Particulars: recombinant kinase assay, ATP 3.1 µM. It counts as biochemical. The method, then:
Reaction buffer was prepared according to ProQinase’s recommendation [60 mM HEPES, 3 mM MgCl2, 3 mM MnCl2, 3 µM Na3VO4, 1.2 mM DTT (dithiothreitol), and 50 µg/mL PEG20,000, (reagents were obtained from Merck Millipore)]. Enzyme activity was assayed in 384 well, low-volume white microtiter plates (Corning®, Merck Millipore, cat. no.: CLS4513-50EA). Compounds were preincubated with c-Met kinase for 30 min at room temperature and reactions were started by adding the substrate–ATP mixture. Reaction time was 60 min at room temperature. Enzyme reaction was stopped using ADP-Glo™ Kinase Assay (Promega, cat. no.: V6930) according to the manufacturer’s instructions (40 min incubation with ADP-Glo™ Reagent, 30 min incubation with Kinase detection reagent at 25 °C). All measurements were performed using a Synergy 2 Multi-Mode Reader (BioTek, Winooski, VT, USA). Raw enzyme activity values were converted to relative activity data using positive and negative controls.
Background: ADP-Glo first removes unused ATP, then detects ADP through luciferase.

A further data set concerns EBC-1 NSCLC cells. Briefly: CellTiter-Glo cell viability assay on EBC-1 cells. The class given is cell-based. As to conditions: for IC50: CellTiter-Glo, 72 h treatment, read-out: IC50, viability inhibition on EBC-1 cells. The method, then:
EBC-1 cell line was obtained from the Japanese Collection of Research Bioresources Cell Bank (JCRB, Solana Beach, CA 92075 USA) and cultured in Eagle’s minimum essential medium (EMEM) (Lonza, Basel, Switzerland, cat. no.: BE12-611F,) supplemented with 1% MycoZap (Lonza, cat. no.: VZA-2012) and 10% fetal bovine serum (FBS) (Thermo Fisher Scientific, Waltham, MA, USA, cat. no.: 10500-064).
as §1

The next data set has as its target T2, prostate cancer GnRHR (Homo sapiens, UniProt P30968).
T2 construct: the human prostate cancer specimen was obtained from a patient at the time of initial surgical treatment; from tissue; host or cells: human prostate cancer surgical specimen, membranes
T2 sequence (P30968 1-328): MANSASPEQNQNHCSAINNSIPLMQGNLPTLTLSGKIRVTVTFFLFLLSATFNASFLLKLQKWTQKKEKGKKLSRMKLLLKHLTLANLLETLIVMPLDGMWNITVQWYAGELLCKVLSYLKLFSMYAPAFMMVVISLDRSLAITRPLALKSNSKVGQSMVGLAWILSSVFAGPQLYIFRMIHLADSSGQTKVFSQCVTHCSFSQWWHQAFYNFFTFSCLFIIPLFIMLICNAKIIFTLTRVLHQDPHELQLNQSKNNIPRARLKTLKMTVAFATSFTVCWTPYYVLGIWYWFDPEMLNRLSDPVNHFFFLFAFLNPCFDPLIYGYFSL
Briefly: Radioligand competition assay, [125I]-[D-Trp6]-GnRH-I displacement, human prostate cancer membranes. Particulars: inhibition of [125I]-[D-Trp6]-GnRH-I binding to membranes. The method, then:
(§2) The collection and use of the tissue samples for our studies were approved by the local Institutional Ethics Committee. Normal human pituitary (anterior lobe) tissue was collected at autopsy and the human prostate cancer specimen was obtained from a patient at the time of initial surgical treatment. The ligand competition assay was performed as described previously.

The target in the next data set is T3, human pituitary GnRHR (Homo sapiens, UniProt P30968).
T3 construct: Normal human pituitary (anterior lobe) tissue was collected at autopsy; from tissue; host or cells: normal human pituitary (anterior lobe), autopsy tissue, membranes
T3 sequence (P30968 1-328): T2 sequence (P30968 1-328)
The data set can be described thus: Radioligand competition assay, [125I]-[D-Trp6]-GnRH-I displacement, human pituitary membranes. As to conditions: inhibition of [125I]-[D-Trp6]-GnRH-I binding to membranes. The method, then: as §2

A further data set relates to EBC-1 cells. Briefly: Galectin puncta assay for lysosomal membrane permeabilization. Particulars: 8 h. It counts as cell-based. The method, then: EBC-1 cells were seeded on eight well Ibidi® μ-Slide microscopic slides (2 × 10^4 cells/well) and allowed to adhere for 48 h. […] Untreated (0.2% DMSO in EMEM) cells were used as a negative control. Cells were incubated with the compounds for 8 h at 37 °C in a CO2 incubator. Cells were fixed with 4% paraformaldehyde for 10 min and washed twice with PBS (Lonza). Cells were permeabilized with 0.1% (v/v) Triton X-100 PBS solution for 10 min. After blocking (5% v/v BSA in PBS), cells were incubated with anti-galectin 3 (Merck, cat. no.: SAB4501746, dilution: 1:100) and anti-galectin-1 (Santa Cruz Biotechnology, cat. no.: sc-166618, dilution: 1:100) primary antibodies overnight at 25 °C, followed by Alexa-Fluor-488-conjugated (Jackson ImmunoResearch., cat. no.: 111-545-003, dilution: 1:500) and Alexa-Fluor-594-conjugated (Jackson ImmunoResearch, cat. no.: 115-585-003, dilution: 1:250) secondary antibodies for 1 h at 25 °C. DRAQ5 (10 µM) was added to the cells for 15 min. Cells were washed three times with PBS and a few drops of mounting media (Merck Millipore) were added. Images of cells were acquired with a confocal laser microscope (Zeiss Confocal LSM 710). [Objective: Plan-Apochromat 63x/1.40 Oil DIC M27. Pinhole: 1.01 AU. Laser wavelength: 488 nm, 543 nm and 633 nm. Detection wavelength: 504–539 nm; 602–651 nm; 694–758 nm)].

T1 sequence (P08581 25-1390): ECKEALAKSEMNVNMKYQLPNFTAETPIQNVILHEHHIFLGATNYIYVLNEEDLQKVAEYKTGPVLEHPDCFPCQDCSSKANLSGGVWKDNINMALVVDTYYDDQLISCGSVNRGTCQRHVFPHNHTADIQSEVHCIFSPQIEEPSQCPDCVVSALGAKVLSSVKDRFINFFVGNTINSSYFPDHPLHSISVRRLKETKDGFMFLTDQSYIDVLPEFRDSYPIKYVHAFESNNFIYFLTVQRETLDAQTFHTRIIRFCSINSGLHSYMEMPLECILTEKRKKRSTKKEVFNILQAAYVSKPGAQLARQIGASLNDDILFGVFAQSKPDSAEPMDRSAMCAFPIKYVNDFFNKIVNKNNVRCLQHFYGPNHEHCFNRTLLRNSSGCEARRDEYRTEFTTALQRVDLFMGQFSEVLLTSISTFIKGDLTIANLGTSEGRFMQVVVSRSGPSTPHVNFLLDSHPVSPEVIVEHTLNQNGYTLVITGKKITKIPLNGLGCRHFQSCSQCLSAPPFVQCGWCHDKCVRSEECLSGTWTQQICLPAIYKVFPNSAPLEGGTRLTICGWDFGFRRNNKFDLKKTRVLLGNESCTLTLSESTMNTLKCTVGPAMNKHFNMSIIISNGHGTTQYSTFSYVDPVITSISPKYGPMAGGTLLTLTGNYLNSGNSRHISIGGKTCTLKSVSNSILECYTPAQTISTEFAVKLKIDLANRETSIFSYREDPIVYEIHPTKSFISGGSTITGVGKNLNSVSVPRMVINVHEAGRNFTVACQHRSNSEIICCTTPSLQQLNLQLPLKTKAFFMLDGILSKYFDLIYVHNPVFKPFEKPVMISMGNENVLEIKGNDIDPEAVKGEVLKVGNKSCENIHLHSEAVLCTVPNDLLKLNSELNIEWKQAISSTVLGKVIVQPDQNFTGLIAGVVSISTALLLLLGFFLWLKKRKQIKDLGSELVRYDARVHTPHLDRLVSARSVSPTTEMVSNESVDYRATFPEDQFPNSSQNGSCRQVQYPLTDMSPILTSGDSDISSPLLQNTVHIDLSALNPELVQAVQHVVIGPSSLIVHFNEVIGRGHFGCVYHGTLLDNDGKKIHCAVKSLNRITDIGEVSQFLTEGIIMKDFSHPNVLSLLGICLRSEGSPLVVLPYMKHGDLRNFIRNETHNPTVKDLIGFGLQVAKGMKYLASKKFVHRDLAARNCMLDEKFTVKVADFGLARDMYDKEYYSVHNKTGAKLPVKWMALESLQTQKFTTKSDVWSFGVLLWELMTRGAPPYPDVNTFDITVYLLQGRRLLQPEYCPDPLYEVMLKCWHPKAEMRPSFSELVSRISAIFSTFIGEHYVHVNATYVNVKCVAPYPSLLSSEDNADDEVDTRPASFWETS

With `CC(C)C[C@H](NC(=O)[C@@H](CCCCN)NC(=O)[C@H](Cc1ccc(O)cc1)NC(=O)[C@H](CO)NC(=O)[C@H](Cc1c[nH]c2ccccc12)NC(=O)[C@H](Cc1cnc[nH]1)NC(=O)[C@@H]1CCC(=O)N1)C(=O)N[C@@H](CCCNC(=N)N)C(=O)N1CCC[C@H]1C(=O)NCC(N)=O` [[D-Lys^6]–GnRH-I, reference compound], the “stability in cell culture medium” value in data set [1] is “stable”.

`CC(Oc1cc(-c2cnn(C3CCN(CCO)CC3)c2)cnc1N)c1c(Cl)ccc(F)c1Cl` (centres unmarked) [MJ55*]: the PAMPA permeability result in data set [2] (early endosome-/lysosome-like pH (pH = 6.0 and 4.8)) was “near zero”. For the same compound, in the data set with c-Met (100 nM), the “inhibition of c-Met phosphorylation in EBC-1 cells” value (from here on “inhibition of c-Met phosphorylation”) is “completely inhibited”. For the same compound, the IC50 in data set [3] (Homo sapiens, Skin fibroblast) was 2600 nM; at recombinant c-Met kinase, 39 nM; in the data set with EBC-1 NSCLC cells (Homo sapiens, EBC-1), 23 nM. Moreover, the “stability in cell culture medium” value in data set [1] is “stable”.

For `C[C@@H](Oc1cc(-c2cnn(C3CCNCC3)c2)cnc1N)c1c(Cl)ccc(F)c1Cl` [crizotinib*], the IC50 in data set [3] (Homo sapiens, Skin fibroblast) amounted to 2600 nM; in the data set on EBC-1 NSCLC cells (Homo sapiens, EBC-1), 28 nM.

With `Cn1c(=O)c2c(ncn2C)n(C)c1=O` [caffeine, reference compound], in data set [2] (PAMPA), the “PAMPA permeability over the investigated pH range” value was “remained constant”.

As to `CC(C)C[C@H](NC(=O)[C@@H](CCCCNC(=O)CCCC(=O)N1CCC(n2cc(-c3cnc(N)c(OC(C)c4c(Cl)ccc(F)c4Cl)c3)cn2)CC1)NC(=O)[C@H](Cc1ccc(O)cc1)NC(=O)[C@H](CO)NC(=O)[C@H](Cc1c[nH]c2ccccc12)NC(=O)[C@H](Cc1c[nH]cn1)NC(=O)[C@@H]1CCC(=O)N1)C(=O)N[C@@H](CCCNC(=N)N)C(=O)N1CCC[C@H]1C(=O)NCC(N)=O` (mixture of isomers) [[D-Lys^6(crizotinib*)]–GnRH-I], the PAMPA membrane permeability entry in [2] (PAMPA, pH 4.8) was “not to be membrane-permeable”. The “inhibition of c-Met phosphorylation” value with c-Met (100 nM) is “no significant inhibitory effect”; in the data set with c-Met (1 µM) it was “moderate”; in the data set on c-Met (10 µM) it was “abolished”. In addition, the IC50 was found to be 39.5 ± 1.7 nM at prostate cancer GnRHR, 163 nM on recombinant c-Met kinase and 34.6 ± 4.2 nM at human pituitary GnRHR. Besides, the figures for the “viability inhibition effect on EBC-1 cells” value in the data set on EBC-1 NSCLC cells (highest 10 µM concentration) and with EBC-1 NSCLC cells (submicromolar range) were “only a moderate effect” and “did not show any significant effect”, respectively. Further, the galectin puncta formation result in the data set on EBC-1 cells (0.1 µM) was “negligable”; with EBC-1 cells (1 µM) it was “clearly detectable”; in the data set on EBC-1 cells (10 µM and 100 µM) it was “more and more significant”.

For `CC(C)C[C@H](NC(=O)[C@@H](CCCCNC(=O)CCCC(=O)OCCN1CCC(n2cc(-c3cnc(N)c(OC(C)c4c(Cl)ccc(F)c4Cl)c3)cn2)CC1)NC(=O)[C@H](Cc1ccc(O)cc1)NC(=O)[C@H](CO)NC(=O)[C@H](Cc1c[nH]c2ccccc12)NC(=O)[C@H](Cc1c[nH]cn1)NC(=O)[C@@H]1CCC(=O)N1)C(=O)N[C@@H](CCCNC(=N)N)C(=O)N1CCC[C@H]1C(=O)NCC(N)=O` (stereo partly drawn) [[D-Lys^6(MJ55*)]–GnRH-I], the “inhibition of c-Met phosphorylation” value with c-Met (100 nM) is reported as “blocked c-Met phosphorylation”. The half-maximal inhibitory concentration (IC50) on prostate cancer GnRHR is 29.7 ± 3.1 nM; in data set [3] it was 3000 nM; at recombinant c-Met kinase, approximately 147 nM; with EBC-1 NSCLC cells, 90 nM; on human pituitary GnRHR it was 21.7 ± 1.4 nM. This compound also gave a half-life in data set [1] (half-life of the ester bond / conjugate in EMEM) of approximately 8 h.
